Values of other authors, collected in patent publication US20170368150A1, “METHODS OF TREATING PULMONARY SARCOIDOSIS” (GOTHAM BIOPHARMACEUTICALS, INC., priority 2014, published 2017).

Columns and labels:
sarcoidosis patients = conditions: human, in vivo
[1] = tested on: people with uveal sarcoidosis; conditions: in vivo
[2] = tested on: persons with pulmonary sarcoidosis; conditions: clinical trials

Adalimumab
fraction of sarcoidosis patients with beneficial response (sarcoidosis patients): about half

Etanercept
efficacy in uveal sarcoidosis [1]: failed to demonstrate any significant efficacy

Infliximab
efficacy in pulmonary sarcoidosis [2]: some success

golimumab
efficacy in pulmonary sarcoidosis [2]: failed to show any benefit
